Data reported in the CheMixHub ionic liquid set.
± gives the uncertainty stated by the source.

Assay: xn = mol fraction of the nth substance listed

CCCCCCCCCCCCCCCC[N+](C)(C)C.[Br-] + O=C(CO)[C@@H](O)[C@H](O)[C@@H](O)CO + O
viscosity [mPa·s], 100 kPa
Conditions | 298.15 K | 308.15 K | 318.15 K
x1 = 7.21e-06, x2 = 0 | 0.896 ± 0.06 | 0.742 ± 0.06 | 0.617 ± 0.06
x1 = 1.442e-05, x2 = 0 | 0.898 ± 0.06 | 0.744 ± 0.06 | 0.617 ± 0.06
x1 = 2.162e-05, x2 = 0 | 0.9 ± 0.06 | 0.745 ± 0.06 | 0.617 ± 0.06

CCCC[N+]1(C)CCCCC1.N#C[N-]C#N + O
100 kPa
Conditions | viscosity [mPa·s]
298.15 K, x2 = 0.2122 | 73 ± 12
328.15 K, x2 = 0.7349 | 6.6 ± 1.1
333.15 K, x2 = 0.6419 | 8 ± 1.3

Cc1ncc(C[n+]2csc(CCO)c2C)c(N)n1.Cl.[Cl-] + O + CCCC[N+](CCCC)(CCCC)CCCC.O=S(=O)([O-])O
viscosity [mPa·s], 101 kPa
Conditions | x1 = 0.0003639, x3 = 0 | x1 = 0.0006573, x3 = 0 | x1 = 0.0009524, x3 = 0 | x1 = 0.001251, x3 = 0 | x1 = 0.001553, x3 = 0 | x1 = 0.001856, x3 = 0
298.15 K | 0.9024 ± 0.0091 | 0.914 ± 0.0092 | 0.9244 ± 0.0092 | 0.9372 ± 0.0093 | 0.9488 ± 0.0094 | 0.959 ± 0.0094
308.15 K | 0.7301 ± 0.0083 | 0.7393 ± 0.0083 | 0.7485 ± 0.0083 | 0.7576 ± 0.0084 | 0.768 ± 0.0084 | 0.7772 ± 0.0085
318.15 K | 0.6037 ± 0.0077 | 0.6116 ± 0.0077 | 0.6196 ± 0.0077 | 0.6275 ± 0.0078 | 0.6343 ± 0.0078 | 0.6413 ± 0.0078

CCCCCCCCCCCCCCCC[N+](C)(C)C.[Br-] + NCC(=O)O + O
viscosity [mPa·s], 101 kPa
Conditions | 298.15 K | 303.15 K | 308.15 K | 313.15 K
x2 = 0.003591, x1 = 3.46e-06 | 0.906 ± 0.055 | 0.819 ± 0.05 | 0.74 ± 0.045 | 0.67 ± 0.041
x2 = 0.003591, x1 = 8.2e-06 | 0.909 ± 0.055 | 0.82 ± 0.05 | 0.742 ± 0.045 | 0.671 ± 0.041
x2 = 0.003591, x1 = 1.13e-05 | 0.912 ± 0.056 | 0.82 ± 0.05 | 0.745 ± 0.045 | 0.672 ± 0.041
x2 = 0.003591, x1 = 1.44e-05 | 0.914 ± 0.056 | 0.825 ± 0.05 | 0.749 ± 0.046 | 0.674 ± 0.041
x2 = 0.003591, x1 = 1.731e-05 | 0.922 ± 0.056 | 0.827 ± 0.05 | 0.752 ± 0.046 | 0.675 ± 0.041
x2 = 0.003591, x1 = 2.096e-05 | 0.93 ± 0.057 | 0.831 ± 0.051 | 0.755 ± 0.046 | 0.678 ± 0.041
x2 = 0.003591, x1 = 2.333e-05 | 0.932 ± 0.057 | 0.843 ± 0.051 | 0.757 ± 0.046 | 0.68 ± 0.041
x2 = 0.003591, x1 = 2.752e-05 | 0.936 ± 0.057 | 0.847 ± 0.052 | 0.759 ± 0.046 | 0.683 ± 0.042
x2 = 0.003591, x1 = 3.171e-05 | 0.94 ± 0.057 | 0.853 ± 0.052 | 0.761 ± 0.046 | 0.689 ± 0.042
x2 = 0.003591, x1 = 3.572e-05 | 0.94 ± 0.057 | 0.855 ± 0.052 | 0.764 ± 0.047 | 0.692 ± 0.042
x2 = 0.005377, x1 = 3.48e-06 | 0.879 ± 0.054 | 0.801 ± 0.049 | 0.725 ± 0.044 | 0.644 ± 0.039
x2 = 0.005377, x1 = 8.25e-06 | 0.881 ± 0.054 | 0.804 ± 0.049 | 0.726 ± 0.044 | 0.644 ± 0.039
x2 = 0.005377, x1 = 1.136e-05 | 0.884 ± 0.054 | 0.805 ± 0.049 | 0.726 ± 0.044 | 0.645 ± 0.039
x2 = 0.005377, x1 = 1.448e-05 | 0.886 ± 0.054 | 0.807 ± 0.049 | 0.727 ± 0.044 | 0.647 ± 0.039
x2 = 0.005377, x1 = 1.741e-05 | 0.89 ± 0.054 | 0.808 ± 0.049 | 0.728 ± 0.044 | 0.648 ± 0.039
x2 = 0.005377, x1 = 2.108e-05 | 0.893 ± 0.054 | 0.811 ± 0.049 | 0.731 ± 0.045 | 0.649 ± 0.04
x2 = 0.005377, x1 = 2.346e-05 | 0.896 ± 0.055 | 0.813 ± 0.049 | 0.733 ± 0.045 | 0.65 ± 0.04
x2 = 0.005377, x1 = 2.767e-05 | 0.9 ± 0.055 | 0.816 ± 0.05 | 0.736 ± 0.045 | 0.651 ± 0.04
x2 = 0.005377, x1 = 3.189e-05 | 0.906 ± 0.055 | 0.823 ± 0.05 | 0.738 ± 0.045 | 0.653 ± 0.04
x2 = 0.005377, x1 = 3.592e-05 | 0.912 ± 0.056 | 0.828 ± 0.05 | 0.741 ± 0.045 | 0.655 ± 0.04
x2 = 0.007156, x1 = 3.5e-06 | 0.914 ± 0.056 | 0.848 ± 0.052 | – | –
x2 = 0.007156, x1 = 8.29e-06 | 0.918 ± 0.056 | 0.852 ± 0.052 | – | –
x2 = 0.007156, x1 = 1.143e-05 | 0.92 ± 0.056 | 0.855 ± 0.052 | – | –
x2 = 0.007156, x1 = 1.456e-05 | 0.922 ± 0.056 | 0.859 ± 0.052 | – | –
x2 = 0.007156, x1 = 1.751e-05 | 0.925 ± 0.056 | 0.864 ± 0.053 | – | –
x2 = 0.007156, x1 = 2.119e-05 | 0.926 ± 0.056 | 0.868 ± 0.053 | – | –
x2 = 0.007156, x1 = 2.359e-05 | 0.929 ± 0.056 | 0.872 ± 0.053 | – | –
x2 = 0.007156, x1 = 2.783e-05 | 0.933 ± 0.057 | 0.876 ± 0.053 | – | –
x2 = 0.007156, x1 = 3.206e-05 | 0.937 ± 0.057 | 0.882 ± 0.054 | – | –
x2 = 0.007156, x1 = 3.612e-05 | 0.944 ± 0.057 | 0.886 ± 0.054 | – | –

CC[n+]1ccn(C)c1.N#C[S-] + CS(C)=O
101 kPa, x1 = 0.3333
Conditions | viscosity [mPa·s]
293.15 K | 3.24 ± 0.33
308.15 K | 2.36 ± 0.24
328.15 K | 1.57 ± 0.16

CCCCCCCCn1cc[n+](C)c1.[Cl-] + CO
101 kPa
Conditions | viscosity [mPa·s]
298.15 K, x1 = 0.0197 | 0.729 ± 0.025
298.15 K, x2 = 0.3525 | 530 ± 110
298.15 K, x2 = 0.4395 | 237 ± 33
298.15 K, x2 = 0.5589 | 64.1 ± 2.1
298.15 K, x2 = 0.8713 | 2.39 ± 0.073
298.15 K, x2 = 0.8813 | 2.205 ± 0.067
313.15 K, x2 = 0.5589 | 34.97 ± 0.94
313.15 K, x2 = 0.8231 | 3.58 ± 0.11
328.15 K, x2 = 0.4395 | 55.2 ± 1.2
328.15 K, x2 = 0.8231 | 2.496 ± 0.077

CC[C@H](C)[C@H](N)C(=O)O + CC[n+]1ccn(C)c1.O=S(=O)([O-])O + O
viscosity [mPa·s], 100 kPa
Conditions | x1 = 0.0003801, x2 = 0 | x1 = 0.0007797, x2 = 0 | x1 = 0.00113, x2 = 0 | x1 = 0.001526, x2 = 0 | x1 = 0.001761, x2 = 0 | x1 = 0.002228, x2 = 0 | x1 = 0.002748, x2 = 0
293.15 K | 1.024 ± 0.033 | 1.046 ± 0.033 | 1.066 ± 0.033 | 1.088 ± 0.033 | 1.101 ± 0.033 | 1.127 ± 0.033 | 1.156 ± 0.046
298.15 K | 0.902 ± 0.032 | 0.913 ± 0.032 | 0.923 ± 0.032 | 0.934 ± 0.032 | 0.94 ± 0.031 | 0.953 ± 0.032 | 0.968 ± 0.041
303.15 K | 0.807 ± 0.031 | 0.817 ± 0.031 | 0.826 ± 0.031 | 0.836 ± 0.031 | 0.843 ± 0.031 | 0.855 ± 0.031 | 0.868 ± 0.032
308.15 K | 0.729 ± 0.031 | 0.739 ± 0.031 | 0.748 ± 0.031 | 0.757 ± 0.031 | 0.763 ± 0.031 | 0.775 ± 0.031 | 0.787 ± 0.031
313.15 K | 0.661 ± 0.031 | 0.671 ± 0.031 | 0.679 ± 0.031 | 0.688 ± 0.031 | 0.693 ± 0.031 | 0.704 ± 0.031 | 0.716 ± 0.031

OCCN(CCO)CCO + CCCC[n+]1ccn(C)c1.F[B-](F)(F)F
Conditions | viscosity [mPa·s]
303.15 K, 101 kPa, x1 = 1 | 400 ± 120

CCCCCCCCCCCCCCCC[N+](C)(C)C.[Br-] + OC[C@H]1O[C@H](O[C@H]2[C@H](O)[C@@H](O)C(O)O[C@@H]2CO)[C@H](O)[C@@H](O)[C@@H]1O + O
viscosity [mPa·s], 100 kPa
Conditions | 298.15 K | 308.15 K | 318.15 K
x1 = 7.21e-06, x2 = 0 | 0.896 ± 0.061 | 0.742 ± 0.061 | 0.617 ± 0.061
x1 = 1.442e-05, x2 = 0 | 0.898 ± 0.061 | 0.744 ± 0.061 | 0.617 ± 0.061
x1 = 2.162e-05, x2 = 0 | 0.9 ± 0.061 | 0.745 ± 0.061 | 0.617 ± 0.061
